Results published in the NIST ThermoML archive (doi:10.1021/je5004912).

Experiment: excess molar enthalpy (molar enthalpy of mixing); xn = mol fraction of the nth substance listed
Settings: 101 kPa, Liquid, Flow calorimetry

CC(C)CC(C)(C)C [2,2,4-trimethylpentane] + CCCO
excess molar enthalpy [kcal/mol]
Settings | 298.15 K | 313.15 K
x1 = 0.05 | 0.0208 | 0.0282
x1 = 0.1 | – | 0.0543
x1 = 0.1001 | 0.0399 | –
x1 = 0.1504 | – | 0.0784
x1 = 0.1505 | 0.0576 | –
x1 = 0.2002 | – | 0.1
x1 = 0.2003 | 0.0736 | –
x1 = 0.25 | – | 0.12
x1 = 0.2501 | 0.0882 | –
x1 = 0.2997 | – | 0.139
x1 = 0.2999 | 0.102 | –
x1 = 0.3498 | – | 0.156
x1 = 0.3499 | 0.114 | –
x1 = 0.4004 | – | 0.172
x1 = 0.4006 | 0.126 | –
x1 = 0.4502 | – | 0.185
x1 = 0.4503 | 0.136 | –
x1 = 0.4995 | – | 0.195
x1 = 0.4997 | 0.144 | –
x1 = 0.5503 | – | 0.203
x1 = 0.5504 | 0.151 | –
x1 = 0.5997 | – | 0.209
x1 = 0.5998 | 0.155 | –
x1 = 0.6498 | – | 0.211
x1 = 0.65 | 0.157 | –
x1 = 0.7007 | – | 0.211
x1 = 0.7008 | 0.157 | –
x1 = 0.7501 | – | 0.206
x1 = 0.7502 | 0.153 | –
x1 = 0.7993 | – | 0.197
x1 = 0.7994 | 0.146 | –
x1 = 0.8499 | 0.135 | 0.184
x1 = 0.8998 | 0.12 | 0.163
x1 = 0.9506 | 0.0937 | 0.124

CCCCCCC [heptane] + CCCO
excess molar enthalpy [kcal/mol]
Settings | 298.15 K | 313.15 K
x1 = 0.0503 | 0.0229 | 0.0292
x1 = 0.1001 | – | 0.0564
x1 = 0.1002 | 0.0435 | –
x1 = 0.15 | – | 0.081
x1 = 0.1501 | 0.0619 | –
x1 = 0.2 | – | 0.103
x1 = 0.2001 | 0.0786 | –
x1 = 0.2498 | – | 0.124
x1 = 0.2499 | 0.0935 | –
x1 = 0.3004 | 0.107 | 0.142
x1 = 0.3503 | – | 0.159
x1 = 0.3505 | 0.119 | –
x1 = 0.4003 | – | 0.174
x1 = 0.4005 | 0.13 | –
x1 = 0.4498 | – | 0.186
x1 = 0.4501 | 0.139 | –
x1 = 0.4996 | – | 0.196
x1 = 0.4997 | 0.147 | –
x1 = 0.5503 | – | 0.203
x1 = 0.5505 | 0.153 | –
x1 = 0.5995 | – | 0.208
x1 = 0.5996 | 0.157 | –
x1 = 0.6505 | – | 0.211
x1 = 0.6506 | 0.158 | –
x1 = 0.7004 | – | 0.209
x1 = 0.7005 | 0.157 | –
x1 = 0.7503 | – | 0.204
x1 = 0.7504 | 0.153 | –
x1 = 0.8 | – | 0.195
x1 = 0.8001 | 0.145 | –
x1 = 0.8492 | – | 0.18
x1 = 0.8493 | 0.134 | –
x1 = 0.8993 | 0.118 | 0.16
x1 = 0.9503 | 0.0913 | 0.123

C=CCCCC [hex-1-ene] + CCCO
excess molar enthalpy [kcal/mol]
Settings | 298.15 K | 313.15 K
x1 = 0.0501 | 0.0146 | 0.022
x1 = 0.1002 | – | 0.0445
x1 = 0.1003 | 0.0301 | –
x1 = 0.1501 | 0.0459 | 0.0667
x1 = 0.2001 | – | 0.0884
x1 = 0.2002 | 0.0612 | –
x1 = 0.2499 | – | 0.109
x1 = 0.2501 | 0.0762 | –
x1 = 0.3003 | – | 0.13
x1 = 0.3004 | 0.0913 | –
x1 = 0.3499 | – | 0.148
x1 = 0.3501 | 0.106 | –
x1 = 0.4006 | – | 0.166
x1 = 0.4007 | 0.119 | –
x1 = 0.4499 | – | 0.181
x1 = 0.4501 | 0.132 | –
x1 = 0.4998 | – | 0.195
x1 = 0.5001 | 0.142 | –
x1 = 0.5502 | – | 0.206
x1 = 0.5504 | 0.152 | –
x1 = 0.5996 | – | 0.214
x1 = 0.5998 | 0.159 | –
x1 = 0.6503 | – | 0.218
x1 = 0.6505 | 0.163 | –
x1 = 0.6996 | – | 0.22
x1 = 0.6998 | 0.165 | –
x1 = 0.75 | 0.163 | 0.217
x1 = 0.7998 | – | 0.209
x1 = 0.7999 | 0.158 | –
x1 = 0.8505 | 0.147 | 0.195
x1 = 0.9004 | 0.131 | 0.172
x1 = 0.9508 | 0.102 | 0.131
